Source: publication PMC10361207, “Cannabinoid and Opioid Receptor Affinity and Modulation of Cancer-Related Signaling Pathways of Machaeriols and Machaeridiols from Machaerium Pers” (Molecules, 2023)
Values after ≈ are worked out from the molar mass of the structure shown.

Biological target: T1, CB2 receptor (Homo sapiens, UniProt P34972)
T1 construct: expressed in transfected cells; host or cells: HEK293 (ATCC), stably transfected; membranes
Assay: Competitive radioligand binding assay, CB2
Details: 10 μM; [3H]-CP55,940
Method: (§1) HEK293 cells stably transfected with δ, κ and μ opioid subtypes were a generous gift from Roth Laboratories (University of North Carolina at Chapel Hill, N.C., USA). CB and opioid cells were maintained as previously described.
(§2) Membranes were purified by first washing the cells with cold PBS and scraping the cells into cold 50 mM Tris-HCl, pH 7.4 buffer, which was centrifuged at 5200× g for 10 min at 4 °C; next, the supernatant was discarded, and the pellet was washed with more Tris-HCl buffer, homogenized via a Sonic Dismembrator (Fisher Scientific, Pittsburgh, PA, USA) and then centrifuged at 24,000× g for 40 min at 4 °C. Finally, the pellet was re-suspended in cold 50 mM Tris-HCl buffer, aliquoted into 2 mL vials and stored at −80 °C. The total membrane protein concentration was measured using a Pierce BCA Protein Assay Kit (Thermo Scientific, Rockford, IL, USA) as per the manufacturer’s protocol.
(§3) Cannabinoid and opioid competitive radioligand binding assays were performed as previously described. Saturation experiments were performed for all the receptors to determine the receptor concentration and radioligand dissociation constant (Kd) for the membrane. Percent displacements were evaluated for all the cannabinoid and opioid subtypes with a triplicate of a fixed concentration (10 µg/mL for extracts and fractions and 10 μM for purified compounds). […] Control/test compounds were dissolved in DMSO at 10 μg/mL for extracts and fractions and 10 μM for purified compounds. […] The percent displacement was calculated to represent the ability of the samples to displace the radioligand binding for a given cannabinoid or opioid receptor subtype.
(§4) The percent displacement was calculated as follows: 100−binding of compound−nonspecific binding/specific binding×100
(§5) The competitive binding assays were performed using 12 serial dilutions of each compound ranging from 0.002 to 300 μM (control compounds were serially diluted from 10 μM to 0.06 nM). The cannabinoid assays were incubated for 90 min at 37 °C with gentle agitation. The opioid assays were incubated for 60 min at room temperature. Bound radioligands were collected on GF/C (cannabinoid) or GF/B plates (opioid) and washed 10 times with ice-cold 50 mM Tris-HCl (pH 7.4)/0.1% BSA (cannabinoid) or ice-cold 50 mM Tris-HCl (pH 7.4) (opioid). Radiodetection was measured with 50 µL (cannabinoid) or 25 µL (opioid) of MicroScint^TM-20 on a TopCount NXT HTS Microplate Scintillation Counter (PerkinElmer, Waltham, MA, USA). The IC50 and Ki values were calculated via a non-linear curve fit model using GraphPad Prism 5.0 software (GraphPad Software, Inc., San Diego, CA, USA). Each compound was tested in triplicate unless stated otherwise.

T1 sequence (P34972 whole entry): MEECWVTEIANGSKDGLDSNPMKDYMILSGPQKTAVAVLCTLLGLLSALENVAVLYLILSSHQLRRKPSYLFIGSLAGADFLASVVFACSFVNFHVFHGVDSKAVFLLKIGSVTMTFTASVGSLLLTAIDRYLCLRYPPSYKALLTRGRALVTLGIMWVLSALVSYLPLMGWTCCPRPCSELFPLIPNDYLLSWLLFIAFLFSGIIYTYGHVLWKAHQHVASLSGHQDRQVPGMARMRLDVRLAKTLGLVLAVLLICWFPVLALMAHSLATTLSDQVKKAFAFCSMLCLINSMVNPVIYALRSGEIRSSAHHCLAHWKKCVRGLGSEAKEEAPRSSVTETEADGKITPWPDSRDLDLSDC

| Structure (SMILES) | Percent displacement, CB2 |
| --- | --- |
| C=C(C)[C@H]1CC[C@H](C)C[C@@H]1c1c(O)cc(-c2cc3ccccc3o2)cc1O [compound 7, machaeridiol C] | 57.9% |

Same assay, conditions: * tested up to solubility limit; conc. at 33.3 μM and above precipitated; read-out: CB2 Ki ± SEM

| Structure (SMILES) | Ki |
| --- | --- |
| C=C(C)[C@H]1CC[C@H](C)C[C@@H]1c1c(O)cc(-c2cc3ccccc3o2)cc1O [compound 7, machaeridiol C] | > 1.11 µM |

Biological target: T2, δ opioid receptor (Homo sapiens, UniProt P41143)
T2 construct: host or cells: HEK293, stably transfected; membranes
T2 sequence (P41143 whole entry): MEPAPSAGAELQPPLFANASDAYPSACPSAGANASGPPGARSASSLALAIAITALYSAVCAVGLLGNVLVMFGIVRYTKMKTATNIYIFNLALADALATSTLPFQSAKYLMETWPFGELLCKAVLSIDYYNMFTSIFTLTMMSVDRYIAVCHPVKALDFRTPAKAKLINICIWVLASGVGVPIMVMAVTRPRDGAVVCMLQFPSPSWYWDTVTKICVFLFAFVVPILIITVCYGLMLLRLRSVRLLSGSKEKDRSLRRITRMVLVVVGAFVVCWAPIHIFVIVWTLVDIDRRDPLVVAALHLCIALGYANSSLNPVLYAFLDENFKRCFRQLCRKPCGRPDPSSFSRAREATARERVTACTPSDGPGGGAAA
Assay: Competitive radioligand binding assay, δ opioid
Details: not given
Method: as §1, §2, §3, §4, §5

| Structure (SMILES) | Δ pKi |
| --- | --- |
| C=C(C)[C@H]1CC[C@H](C)C[C@@H]1c1c(O)cc(-c2cc3ccccc3o2)cc1O [compound 7, machaeridiol C] | 4.91 |

Same assay, conditions: 10 μM; [3H]-enkephalin (DPDPE); read-out: Percent displacement, Δ

| Structure (SMILES) | inhibition at 10 µM |
| --- | --- |
| C=C(C)[C@H]1CC[C@H](C)C[C@@H]1c1c(O)cc(-c2cc3ccccc3o2)cc1O [compound 7, machaeridiol C] | 26.6% |

Same assay, conditions: NA = not active; read-out: Δ Ki ± SEM

| Structure (SMILES) | Ki |
| --- | --- |
| C=C(C)[C@H]1CC[C@H](C)C[C@@H]1c1c(O)cc(-c2cc3ccccc3o2)cc1O [compound 7, machaeridiol C] | 12.2 ± 1.19 µM |

Biological target: T3, μ opioid receptor (Homo sapiens, UniProt P35372)
T3 construct: host or cells: HEK293, stably transfected; membranes
T3 sequence (P35372 whole entry): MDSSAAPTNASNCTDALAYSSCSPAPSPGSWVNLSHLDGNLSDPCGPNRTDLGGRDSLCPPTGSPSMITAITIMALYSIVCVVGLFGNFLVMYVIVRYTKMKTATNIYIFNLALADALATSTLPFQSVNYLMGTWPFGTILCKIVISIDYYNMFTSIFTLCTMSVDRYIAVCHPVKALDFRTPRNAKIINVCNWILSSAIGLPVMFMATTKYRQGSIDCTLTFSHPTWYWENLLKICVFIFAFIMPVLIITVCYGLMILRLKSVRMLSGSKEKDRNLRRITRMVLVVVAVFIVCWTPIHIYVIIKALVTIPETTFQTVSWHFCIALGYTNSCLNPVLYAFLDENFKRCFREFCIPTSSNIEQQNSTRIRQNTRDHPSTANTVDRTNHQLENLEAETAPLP
Assay: biochemical
Type: binding
Details: 10 μM; [3H]-DAMGO
Method: as §1, §2, §3, §4, §5

| Structure (SMILES) | Percent displacement, µ |
| --- | --- |
| C=C(C)[C@H]1CC[C@H](C)C[C@@H]1c1c(O)cc(-c2cc3ccccc3o2)cc1O [compound 7, machaeridiol C] | 31.7% |

Same assay, conditions: NA = not active; read-out: μ Ki ± SEM

| Structure (SMILES) | Ki |
| --- | --- |
| C=C(C)[C@H]1CC[C@H](C)C[C@@H]1c1c(O)cc(-c2cc3ccccc3o2)cc1O [compound 7, machaeridiol C] | 4.01 ± 0.65 µM |

Tested on: not listed separately
Assay: Cytotoxicity, Neutral Red, SK-MEL
Type: cell-based
Details: human, SK-MEL malignant melanoma cells, Na = not active up to 50 µg/mL
Method: (§6) In vitro cytotoxic activity was determined against five human cancer cell lines—malignant melanoma (SK-MEL), epidermal carcinoma oral (KB), ductal carcinoma breast (BT-549), ovary carcinoma (SKOV-3) and cervical (HeLa) cancer cells—and two non-cancerous kidney cell lines (LLC-PK1 and Vero). All cell lines were obtained from the American Type Culture Collection (ATCC, Rockville, MD, USA). Each assay was performed in 96-well tissue culture-treated microplates. The cells were seeded at a density of 25,000 cells/well and incubated for 24 h. Samples at different concentrations were added, and the cells were incubated again for 48 h. At the end of the incubation, the cell viability was determined using Neutral Red dye according to a modification of the procedure used by Borenfreund et al.. IC50 values were determined from dose–response curves of the percent growth inhibition against test concentrations. Doxorubicin was used as a positive control, while DMSO was used as the negative (vehicle) control.

| Structure (SMILES) | IC50 at 48 h |
| --- | --- |
| C=C(C)[C@H]1CC[C@H](C)C[C@@H]1c1c(O)cc(-c2cc3ccccc3o2)cc1O [compound 7, machaeridiol C] | > 50 µg/mL |

Tested on: not listed separately
Assay: Cytotoxicity, Neutral Red, KB
Type: cell-based
Details: human, KB epidermal carcinoma (oral) cells, Na = not active up to 50 µg/mL
Method: as §6

| Structure (SMILES) | IC50 at 48 h |
| --- | --- |
| C=C(C)[C@H]1CC[C@H](C)C[C@@H]1c1c(O)cc(-c2cc3ccccc3o2)cc1O [compound 7, machaeridiol C] | > 50 µg/mL |

Tested on: not listed separately
Assay: Cytotoxicity, Neutral Red, BT-549
Type: cell-based
Details: human, BT-549 breast ductal carcinoma cells, Na = not active up to 50 µg/mL
Method: as §6

| Structure (SMILES) | IC50 at 48 h |
| --- | --- |
| C=C(C)[C@H]1CC[C@H](C)C[C@@H]1c1c(O)cc(-c2cc3ccccc3o2)cc1O [compound 7, machaeridiol C] | 47 µg/mL (≈ 130 µM) |

Tested on: SK-MEL, KB, BT-549, SK-OV-3, HeLa, LLC-PK1 and Vero cells
Assay: Cytotoxicity, summary over the cell line panel
Type: cell-based
Details: highest tested concentration of 50 µg/mL; most of the cells
Method: as §6

| Structure (SMILES) | Cytotoxicity (in words) |
| --- | --- |
| C=C(C)[C@H]1CC[C@H](C)C[C@@H]1c1c(O)cc(-c2cc3ccccc3o2)cc1O [compound 7, machaeridiol C] | inactive |

Tested on: Stat3
Assay: Luciferase reporter assay, Stat3, HeLa
Type: cell-based, human
Details: Homo sapiens; HeLa cells; inducer IL6; dash: not inhibited by more than 40% at 50 µmol/L
Method: (§7) Hela cells (or T98G cells) from ATCC were plated in white opaque 384-well plates at a density of 4300 cells/well in 30 µL of growth medium (DMEM with 10% FBS and 1% Pen/Strep). The next day, the medium was aspirated and replaced with DMEM containing 1% FBS. The cells were transfected with respective plasmids using X-tremeGENE HP DNA transfection reagent (Roche). After 24 h of transfection, the test agents were added to the transfected cells, followed 30 min later by an inducing agent: interleukin 6 (IL-6) for Stat3, TGF-β for Smad, m-wnt3a for Wnt and PMA for AP-1, NF-κB, E2F, Myc, ETS, Notch and Hedgehog. No inducer was added for FoXO and pTK. After 4 h or 6 h of induction, the cells were lysed via the addition of the One-Glo luciferase assay system (Promega; Madison, WI). The light output was detected in a GloMax®-Multi+ Detection System with Instinct® Software (Promega E 8051). This luciferase assay determines if the test agent is able to inhibit the activation of cancer-related signaling pathways. In the case of FoxO, the enhanced luciferase activity via the test agent was assessed.

| Structure (SMILES) | IC50 |
| --- | --- |
| C=C(C)[C@H]1CC[C@H](C)C[C@@H]1c1c(O)cc(-c2cc3ccccc3o2)cc1O [compound 7, machaeridiol C] | 11.2 µM |

Tested on: Smad2/3
Assay: Luciferase reporter assay, Smad2/3, HeLa
Type: cell-based, human
Details: Homo sapiens; HeLa cells; inducer TGF-beta; dash: not inhibited by more than 40% at 50 µmol/L
Method: as §7

| Structure (SMILES) | IC50 |
| --- | --- |
| C=C(C)[C@H]1CC[C@H](C)C[C@@H]1c1c(O)cc(-c2cc3ccccc3o2)cc1O [compound 7, machaeridiol C] | 2.5 µM |

Tested on: AP-1
Assay: Luciferase reporter assay, AP-1, HeLa
Type: cell-based, human
Details: Homo sapiens, read-out: IC50, Ap-1 (PMA)
Method: as §7

| Structure (SMILES) | IC50 |
| --- | --- |
| C=C(C)[C@H]1CC[C@H](C)C[C@@H]1c1c(O)cc(-c2cc3ccccc3o2)cc1O [compound 7, machaeridiol C] | 6.7 µM |

Tested on: NF-κB
Assay: Luciferase reporter assay, NF-κB, HeLa
Type: cell-based
Details: Homo sapiens; HeLa cells; inducer PMA; dash: not inhibited by more than 40% at 50 µmol/L
Method: as §7

| Structure (SMILES) | IC50 |
| --- | --- |
| C=C(C)[C@H]1CC[C@H](C)C[C@@H]1c1c(O)cc(-c2cc3ccccc3o2)cc1O [compound 7, machaeridiol C] | 2 µM |

Tested on: E2F
Assay: Luciferase reporter assay, E2F, HeLa
Type: cell-based, human
Details: Homo sapiens, HeLa, read-out: IC50, E2F (PMA)
Method: as §7

| Structure (SMILES) | IC50 |
| --- | --- |
| C=C(C)[C@H]1CC[C@H](C)C[C@@H]1c1c(O)cc(-c2cc3ccccc3o2)cc1O [compound 7, machaeridiol C] | 8.7 µM |

Tested on: Myc
Assay: Luciferase reporter assay, Myc, HeLa
Type: cell-based
Details: Homo sapiens; HeLa cells; inducer PMA; dash: not inhibited by more than 40% at 50 µmol/L
Method: as §7

| Structure (SMILES) | IC50 |
| --- | --- |
| C=C(C)[C@H]1CC[C@H](C)C[C@@H]1c1c(O)cc(-c2cc3ccccc3o2)cc1O [compound 7, machaeridiol C] | 6.8 µM |

Tested on: ETS
Assay: Luciferase reporter assay, ETS, HeLa
Type: cell-based, human
Details: Homo sapiens; HeLa cells; inducer PMA; dash: not inhibited by more than 40% at 50 µmol/L
Method: as §7

| Structure (SMILES) | IC50 |
| --- | --- |
| C=C(C)[C@H]1CC[C@H](C)C[C@@H]1c1c(O)cc(-c2cc3ccccc3o2)cc1O [compound 7, machaeridiol C] | 7.2 µM |

Tested on: Notch
Assay: Luciferase reporter assay, Notch, HeLa
Type: cell-based
Details: Homo sapiens; HeLa cells; inducer PMA; dash: not inhibited by more than 40% at 50 µmol/L
Method: as §7

| Structure (SMILES) | IC50 |
| --- | --- |
| C=C(C)[C@H]1CC[C@H](C)C[C@@H]1c1c(O)cc(-c2cc3ccccc3o2)cc1O [compound 7, machaeridiol C] | 12 µM |

Tested on: FoxO
Assay: Luciferase reporter assay, FoxO, HeLa
Type: cell-based
Details: Homo sapiens; HeLa cells; no inducer; dash: no activity detected; read-out: IC50, FoxO (None)
Method: as §7

| Structure (SMILES) | IC50 |
| --- | --- |
| C=C(C)[C@H]1CC[C@H](C)C[C@@H]1c1c(O)cc(-c2cc3ccccc3o2)cc1O [compound 7, machaeridiol C] | > 50 µM |

Tested on: Wnt
Assay: Luciferase reporter assay, Wnt, HeLa
Type: cell-based
Details: Homo sapiens; HeLa cells; inducer m-wnt3a; dash: not inhibited by more than 40% at 50 µmol/L
Method: as §7

| Structure (SMILES) | IC50 |
| --- | --- |
| C=C(C)[C@H]1CC[C@H](C)C[C@@H]1c1c(O)cc(-c2cc3ccccc3o2)cc1O [compound 7, machaeridiol C] | > 50 µM |

Tested on: Hedgehog
Assay: Luciferase reporter assay, Hedgehog, HeLa
Type: cell-based, human
Details: Homo sapiens; HeLa cells; inducer PMA; dash: not inhibited by more than 40% at 50 µmol/L
Method: as §7

| Structure (SMILES) | IC50 |
| --- | --- |
| C=C(C)[C@H]1CC[C@H](C)C[C@@H]1c1c(O)cc(-c2cc3ccccc3o2)cc1O [compound 7, machaeridiol C] | 8.8 µM |

Tested on: not listed separately
Assay: Solubility in aqueous assay buffer
Details: aqueous buffer of the radioligand binding assay

| Structure (SMILES) | solubility |
| --- | --- |
| C=C(C)[C@H]1CC[C@H](C)C[C@@H]1c1c(O)cc(-c2cc3ccccc3o2)cc1O [compound 7, machaeridiol C] | < 33.3 µM |
